Among the data in patent publication US9452990B2, “Complement pathway modulators and uses thereof” (NOVARTIS AG, priority 2012, dated 2016) are IC50 values, retold here.

The structures appear in SMILES notation. pIC50: −log10 of the molar value. Counter-ions that a name gives are not always drawn. Like-named read-outs stand apart in the source and are kept apart here.

For this test, the target named is human complement factor B (CVF-Bb complex) (Homo sapiens (Human), UniProt P00751). As to the kind of experiment: Human Complement Factor B ELISA Assay. In kind it is biochemical. As for the experimental part: Human Complement Factor B ELISA Assay
CVF-Bb complex prepared from purified cobra venom factor (1 μM), recombinant human complement factor B (expressed in drosophila cells and purified using standard methods) and human complement factor D (expressed in E. Coli, refolded and purified using standard methods). CVF-Bb complex at 3 nM concentration was incubated with test compound at various concentrations for 1 hour at room temperature in PBS pH 7.4 containing 10 mM MgCl2 and 0.05% (w/v) CHAPS. Human complement C3 substrate purified from plasma was added to a final concentration of 1 μM. After 1 hour incubation at room temperature, the enzyme reaction was stopped by addition of a cocktail of concentrated pan-protease inhibitors. The product of the reaction, C3a, was quantified by means of an enzyme-linked-immunosorbent assay. IC50 values were calculated from percentage of inhibition of CVF-Bb activity as a function of test compound concentration.
A general note: An ELISA detects its analyte on a solid surface through an enzyme-linked reagent.

Where [1] appears, read: CVF-Bb complex 3 nM, 1 hour preincubation with compound at room temperature, human C3 substrate 1 μM, C3a quantified by ELISA, read-out: Factor B IC50.

For orientation: pIC50 means the IC50 on a negative log10 scale, so that one unit is a factor of ten. As for `C#CC[C@H](N)CC(=O)N1CCN(c2nc(N)c3cc(OC)c(OC)c(F)c3n2)CC1` [Example 31, (S)-3-Amino-1-[4-(4-amino-8-fluoro-6,7-dimethoxy-quinazolin-2-yl)-piperazin-1-yl]-hex-5-yn-1-one], the pIC50 under setting [1] is 5.98. With `COc1cc2c(N)nc(N3CCN(C(=O)C[C@@H](N)C4CCCC4)CC3)nc2c(F)c1OC` [Example 32, (R)-3-Amino-1-[4-(4-amino-8-fluoro-6,7-dimethoxy-quinazolin-2-yl)-piperazin-1-yl]-3-cyclopentyl-propan-1-one], the pIC50 under setting [1] is 7.00.

`COc1cc2c(N)nc(N3CCN(C(=O)C[C@@H](N)CC(C)C)CC3)nc2c(F)c1OC` [Example 33, (S)-3-Amino-1-[4-(4-amino-8-fluoro-6,7-dimethoxy-quinazolin-2-yl)-piperazin-1-yl]-5-methyl-hexan-1-one]: the pIC50 under setting [1] is 6.17. In turn, `COc1cc2c(N)nc(N3CCN(C(=O)C[C@@H](N)c4ccco4)CC3)nc2c(F)c1OC` [Example 34, (R)-3-Amino-1-[4-(4-amino-8-fluoro-6,7-dimethoxy-quinazolin-2-yl)-piperazin-1-yl]-3-furan-2-yl-propan-1-one hydrochloride] had a pIC50 of 7.05. The same measure, in the same setting: with `COc1cc2c(N)nc(N3CCN(C(=O)C[C@@H](N)c4ccoc4)CC3)nc2c(F)c1OC` [Example 35, (R)-3-Amino-1-[4-(4-amino-8-fluoro-6,7-dimethoxy-quinazolin-2-yl)piperazin-1-yl]-3-furan-3-yl-propan-1-one hydrochloride] the figure was 6.51; with `COc1cc2c(N)nc(N3CCN(C(=O)C[C@@H](N)c4cccs4)CC3)nc2c(F)c1OC` [Example 36, (R)-3-Amino-1-[4-(4-amino-8-fluoro-6,7-dimethoxy-quinazolin-2-yl)-piperazin-1-yl]-3-thiophen-2-yl-propan-1-one hydrochloride], 6.72. Take `COc1cc2c(N)nc(N3CCN(C(=O)C[C@@H](N)c4ccsc4)CC3)nc2c(F)c1OC` [Example 37, (R)-3-Amino-1-[4-(4-amino-8-fluoro-6,7-dimethoxy-quinazolin-2-yl)-piperazin-1-yl]-3-thiophen-3-yl-propan-1-one]: under setting [1], the pIC50 is 7.40. On the same count and under the same terms, in the case of `COc1cc2c(N)nc(N3CCN(C(=O)C[C@@H](N)c4ccc(C)s4)CC3)nc2c(F)c1OC` [Example 38, (R)-3-Amino-1-[4-(4-amino-8-fluoro-6,7-dimethoxy-quinazolin-2-yl)piperazin-1-yl]-3-(5-methyl-thiophen-2-yl)-propan-1-one] it was 6.74. Take `COc1cc2c(N)nc(N3CCN(C(=O)C[C@@H](N)c4ccccc4)CC3)nc2c(F)c1OC` [Example 39, (R)-3-Amino-1-[4-(4-amino-8-fluoro-6,7-dimethoxy-quinazolin-2-yl)-piperazin-1-yl]-3-phenyl-propan-1-one]: the pIC50 under setting [1] was 6.64. As to `COc1cc2c(N)nc(N3CCN(C(=O)C[C@@H](N)c4cccc(C)c4)CC3)nc2c(F)c1OC` [Example 40, (R)-3-Amino-1-[4-(4-amino-8-fluoro-6,7-dimethoxy-quinazolin-2-yl)-piperazin-1-yl]-3-m-tolyl-propan-1-one], the pIC50 under setting [1] is 6.66.

`COc1cc2c(N)nc(N3CCN(C(=O)C[C@@H](N)c4ccc(C)cc4)CC3)nc2c(F)c1OC` [Example 41, (R)-3-Amino-1-[4-(4-amino-8-fluoro-6,7-dimethoxy-quinazolin-2-yl)-piperazin-1-yl]-3-p-tolyl-propan-1-one]: under setting [1], the pIC50 is 7.15. `C#Cc1ccc([C@H](N)CC(=O)N2CCN(c3nc(N)c4cc(OC)c(OC)c(F)c4n3)CC2)cc1` [Example 42, (R)-3-Amino-1-[4-(4-amino-8-fluoro-6,7-dimethoxy-quinazolin-2-yl)-piperazin-1-yl]-3-(4-ethynyl-phenyl)-propan-1-one hydrochloride] showed a negative-log IC50 (pIC50) of 6.29.

Regarding `COc1cc2c(N)nc(N3CCN(C(=O)C[C@@H](N)c4cccc(C#N)c4)CC3)nc2c(F)c1OC` [Example 43, 3-{(R)-1-Amino-3-[4-(4-amino-8-fluoro-6,7-dimethoxy-quinazolin-2-yl)-piperazin-1-yl]-3-oxo-propyl}-benzonitrile], the negative-log IC50 (pIC50) under setting [1] was 7.40. Compound `COc1cc2c(N)nc(N3CCN(C(=O)C[C@@H](N)c4ccc(C#N)cc4)CC3)nc2c(F)c1OC` [Example 44, 4-{(R)-1-Amino-3-[4-(4-amino-8-fluoro-6,7-dimethoxy-quinazolin-2-yl)piperazin-1-yl]-3-oxo-propyl}-benzonitrile hydrochloride] gave a pIC50 of 8.00. Regarding `COc1cc2c(N)nc(N3CCN(C(=O)C[C@@H](N)c4cccc(F)c4)CC3)nc2c(F)c1OC` [Example 45, (R)-3-Amino-1-[4-(4-amino-8-fluoro-6,7-dimethoxy-quinazolin-2-yl)-piperazin-1-yl]-3-(3-fluoro-phenyl)-propan-1-one], the pIC50 under setting [1] is 7.30. Still for that read-out and setting: in the case of `COc1cc2c(N)nc(N3CCN(C(=O)C[C@@H](N)c4ccc(F)cc4)CC3)nc2c(F)c1OC` [Example 46, (R)-3-Amino-1-[4-(4-amino-8-fluoro-6,7-dimethoxy-quinazolin-2-yl)-piperazin-1-yl]-3-(4-fluoro-phenyl)-propan-1-one] it was 7.40. The same measure, in the same setting: in the case of `COc1cc2c(N)nc(N3CCN(C(=O)C[C@@H](N)c4cccc(Cl)c4)CC3)nc2c(F)c1OC` [Example 47, (R)-3-Amino-1-[4-(4-amino-8-fluoro-6,7-dimethoxy-quinazolin-2-yl)-piperazin-1-yl]-3-(3-chloro-phenyl)-propan-1-one] it was 6.96. For `COc1cc2c(N)nc(N3CCN(C(=O)C[C@@H](N)c4ccc(Cl)cc4)CC3)nc2c(F)c1OC` [Example 48, (R)-3-Amino-1-[4-(4-amino-8-fluoro-6,7-dimethoxy-quinazolin-2-yl)-piperazin-1-yl]-3-(4-chloro-phenyl)-propan-1-one hydrochloride], the negative-log IC50 (pIC50) was 7.05. On to `COc1cc2c(N)nc(N3CCN(C(=O)C[C@@H](N)c4ccc(Br)cc4)CC3)nc2c(F)c1OC` [Example 49, (R)-3-Amino-1-[4-(4-amino-8-fluoro-6,7-dimethoxy-quinazolin-2-yl)-piperazin-1-yl]-3-(4-bromo-phenyl)-propan-1-one hydrochloride], for which the negative logarithm of the IC50 (pIC50) was 7.22. For `COc1cc2c(N)nc(N3CCN(C(=O)C[C@@H](N)c4ccc(F)cc4F)CC3)nc2c(F)c1OC` [Example 50, (R)-3-Amino-1-[4-(4-amino-8-fluoro-6,7-dimethoxy-quinazolin-2-yl)-piperazin-1-yl]-3-(2,4-difluoro-phenyl)-propan-1-one hydrochloride], the negative logarithm of the IC50 (pIC50) is 6.35. `COc1cc2c(N)nc(N3CCN(C(=O)C[C@@H](N)c4ccc(F)c(F)c4)CC3)nc2c(F)c1OC` [Example 51, (R)-3-Amino-1-[4-(4-amino-8-fluoro-6,7-dimethoxy-quinazolin-2-yl)piperazin-1-yl]-3-(3,4-difluoro-phenyl)-propan-1-one hydrochloride] showed a pIC50 of 6.74.

Compound `COc1cc2c(N)nc(N3CCN(C(=O)C[C@@H](N)c4ccc(F)c(Cl)c4)CC3)nc2c(F)c1OC` [Example 52, (R)-3-Amino-1-[4-(4-amino-8-fluoro-6,7-dimethoxy-quinazolin-2-yl)-piperazin-1-yl]-3-(3-chloro-4-fluoro-phenyl)-propan-1-one hydrochloride] gave a pIC50 of 6.96.

`COc1cc2c(N)nc(N3CCN(C(=O)C[C@@H](N)c4ccc(C(F)F)cc4)CC3)nc2c(F)c1OC` [Example 53, (R)-3-Amino-1-[4-(4-amino-8-fluoro-6,7-dimethoxy-quinazolin-2-yl)piperazin-1-yl]-3-(4-difluoromethyl-phenyl)-propan-1-one hydrochloride] gave a negative-log IC50 (pIC50) of 7.30.

On to `COc1cc2c(N)nc(N3CCN(C(=O)C[C@@H](N)c4cccc(C(F)(F)F)c4)CC3)nc2c(F)c1OC` [Example 54, (R)-3-Amino-1-[4-(4-amino-8-fluoro-6,7-dimethoxy-quinazolin-2-yl)-piperazin-1-yl]-3-(3-trifluoromethyl-phenyl)-propan-1-one], for which the pIC50 under setting [1] was 6.59. In the case of `COc1cc2c(N)nc(N3CCN(C(=O)C[C@@H](N)c4ccc(C(F)(F)F)cc4)CC3)nc2c(F)c1OC` [Example 55, (R)-3-Amino-1-[4-(4-amino-8-fluoro-6,7-dimethoxy-quinazolin-2-yl)piperazin-1-yl]-3-(4-trifluoromethyl-phenyl)-propan-1-one hydrochloride], the negative logarithm of the IC50 (pIC50) is 6.80. Still for that read-out and setting: in the case of `COc1cc2c(N)nc(N3CCN(C(=O)C[C@@H](N)CC(C)C)C[C@@H]3C)nc2c(F)c1OC` [Example 56, (S)-3-Amino-1-[(S)-4-(4-amino-8-fluoro-6,7-dimethoxy-quinazolin-2-yl)-3-methyl-piperazin-1-yl]-5-methyl-hexan-1-one hydrochloride] it was 6.62; in that of `COc1cc2c(N)nc(N3CCN(C(=O)C[C@@H](N)c4ccccc4)C[C@@H]3C)nc2c(F)c1OC` [Example 57, (R)-3-Amino-1-[(S)-4-(4-amino-8-fluoro-6,7-dimethoxy-quinazolin-2-yl)-3-methyl-piperazin-1-yl]-3-phenyl-propan-1-one hydrochloride], 6.68. For the compound `COc1cc2c(N)nc(N3CCN(C(=O)C[C@@H](N)c4ccc(C#N)cc4)C[C@@H]3C)nc2c(F)c1OC` [Example 58, 4-{(R)-1-Amino-3-[(S)-4-(4-amino-8-fluoro-6,7-dimethoxy-quinazolin-2-yl)-3-methyl-piperazin-1-yl]-3-oxo-propyl}-benzonitrile hydrochloride], the negative-log IC50 (pIC50) was 8.05.
